Values joined by “and” are separate entries in the source; they are usually repeats but may differ in a detail not shown here. Identical values can stand only once.
Tests used:
[1] = system: control Sprague-Dawley rats; assay: Effects of i.v. administration on urine output, urine osmolality and water intake in normonatremic rats; type: in vivo, rat
Procedure: Male Swiss mice (25–30 g, 4–6 weeks) and male Sprague–Dawley rats (210–230 g, 6–8 weeks) were obtained from Charles River Laboratories (L’Arbresle, France). While housed in our animal facility, they were given free access to normal chow and water, and they were maintained under 12-h light/dark cycles throughout the study. Temperature was maintained between 18 and 22 °C, and humidity between 40 and 60%. When required for i.v. administration, a right femoral venous catheter was implanted in the rats, by tunneling under the skin, under isoflurane anesthesia (4% for induction, 2% for maintenance). Meloxicam (Metacam) was administered postoperatively (1 mg/kg s.c.) for analgesia.

[2] = in plasma; cited from earlier work
[3] = system: mice; assay: Left ventricular ejection fraction by echocardiography in mice; type: in vivo, mouse
Procedure: LVEF was determined in mice under isoflurane anesthesia at baseline and 3 h after s.c. administration of the compound, as previously described.

[4] = in vivo; conditions: for Apelin (plasma apelin-immunoreactive level): single animals
Procedure: 187 Apelin radioimmunoassay
188 Plasma samples (0.5 ml) were acidified with 0.175 ml of 3 mol/l HCl and stored at -80°C
189 until use for apelin RIA. Before thawing the sample on ice, 0.05% BSA was added, and the
190 samples were centrifuged at 20000 x g at 4°C for 10 min. The supernatants were collected and
191 the pH was adjusted to 6.5 with 10 mol/l NaOH and 2 mol/l Tris-HCl buffer (pH 7.4). Apelin
192 was extracted from plasma by mixing the supernatant with 0.3 ml of 0.1% BSA in H2O and 1
193 ml of 1% trifluoroacetic acid (TFA) - 0.1% BSA, and running the mixture on a Sep-Pak C18
194 cartridge (Waters) previously washed with 2 ml 100% acetonitrile and equilibrated with 5 ml
195 1% TFA - 0.1% BSA. The columns then were washed with 3 ml 1% TFA - 0.1% BSA and
196 apelin was eluted with 1.5 ml 100% acetonitrile. […]
208 Plasma or brain apelin levels w ere deter mined by RIA. Samples (0.1ml) w ere mixed with 125I-
211 dilution: 1/4500) to give a total volume of 0.2 ml and were incubated at 4°C overnight. We
212 used this radioligand instead of [Glp65, Nle75, Tyr77] [125I]-apelin13 since the substitution of
214 derivatives as described previously by 3,4.
215 We then added 0.5 ml of Amerlex (Amersham RPN 510), and the resulting mixture was
216 incubated for 10 min at room temperature. The tubes were centrifuged at 2600 x g at 4°C for
217 20 min. The supernatant was removed and the radioactivity of the precipitates was measured.
218 We assessed the cross-reactivity of the apelin antiserum with various N- and C-terminally
232 according to the following equation: [plasma apelin] tx = [plasma apelin] t0 * e(-kt) , where k is
233 the elimination rate constant. […]

[5] = system: apelin-R and V2-R; assay: dDAVP-induced cAMP production in CHO cells stably expressing both the apelin-R and the V2-R; type: cell-based
[6] = system: rat outer medullary collecting ducts (OMCDs); assay: dDAVP-induced cAMP production in microdissected rat outer medullary collecting ducts; type: cell-based
Procedure: The left kidney of male rats was prepared for nephron microdissection, as previously described[51]. Pieces of OMCDs were isolated under a stereomicroscope.
Then cells were treated with 10
180 37°C. Then the media was removed and 100 µl of lysis buffer (Cisbio Bioassays, Codolet,
181 France) was added to Transwell filter and plate was incubated at 20°C for 2 hours. Cell
183 384-well plates (Perkin Elmer) according to manufacturer’s instructions (Cisbio Bioassays,
184 Codolet, France). Cyclic AMP levels were measured in microdissected OMCDs by the same
Results are expressed in femtomoles of cAMP produced
186 per mm tubular length and per 10 min incubation time at 37°C.

[7] = Plasma protein binding (Rapid Equilibrium Dialysis); type: in vitro ADME; conditions: RED plate, 12 kDa cutoff, plasma vs phosphate buffer, 10 µmol/l, 4 hours, 37 °C, 600 rpm, UHPLC-MS/MS; value at equilibrium
Procedure: 252 TechMedILL platfor m (Illkirch) reviewed and approved by the agriculture ministry regulating
256 Male Sprague-Dawley rats were killed by decapitation, and trunk blood was collected on ice
257 (into 50 µl of 0.3M EDTA (pH 7.4) per 1 ml of blood). Samples were centrifuged (2,600 x g,
258 4°C, 20 min), and the resulting plasma was split into 500 µl aliquots, to which we added 168
259 µl of 3N HCl before storage at -80°C. The AVP RIA was performed as previously described
260 5, using a specific AVP-[Arg8] antibody (final dilution, 1/4.5) and [125I]-(Tyr2Arg8)-AVP
261 (2200 Ci/mmol, Perkin-Elmer, Billerica, MA; 15000 dpm) as a tracer.
263 Plasma protein binding of LIT01-196 was determined using Thermo Scientific Single-Use
264 RED Plate (Rapid Equilibrium Dialysis) composed of dialysis inserts with a me mbrane cutoff
265 of 12 kDa. Compound (10 µmol/l) was spiked in plasma chamber (donor side); phosphate
266 buffer was placed in the receiving side. The plate was rotated at 37 °C on an orbital shaker at
267 600 rpm for 4 hours. Peptide concentration was determined for the plasma sample that
268 represents the bound fraction, the peptide concentration was deter mined for the buffer sample
269 that represents the free fraction. The samples were analyzed by UHPLC-MS/MS (LC-MS […]
274 proteins. Percentages of bound and free peptides were calculated as follows: % free peptide = […]

[8] = 15 nmol/kg i.v., control rats, 24 h, n = 6

With CSCC[C@H](NC(=O)[C@@H]1CCCN1C(=O)CNC(=O)[C@H](CCCCN)NC(=O)[C@H](Cc1c[nH]cn1)NC(=O)[C@H](CO)NC(=O)[C@H](CC(C)C)NC(=O)[C@H](CCCNC(=N)N)NC(=O)[C@@H]1CCCN1C(=O)[C@H](CCCNC(=N)N)NC(=O)[C@H](CCC(N)=O)NC(=O)[C@H](CCCNC(=N)N)NC(=O)[C@H](CCCNC(=N)N)NC(=O)[C@H](Cc1ccccc1)NC(=O)[C@H](CCCCN)NC(=O)CCC(F)(F)C(F)(F)C(F)(F)C(F)(F)C(F)(F)C(F)(F)C(F)(F)C(F)(F)F)C(=O)N1CCC[C@H]1C(=O)N[C@@H](Cc1ccccc1)C(=O)O [LIT01-196] the “decrease in urine osmolality relative to saline” value [1, 8] was 38%, the “increase in urine output relative to saline” value [1, 8] was 95% and the water intake ([1]; i.v., K17F 400 nmol/kg, LIT01-196 15 nmol/kg, 24 hours) was “did not induce a significant change”. The plasma half-life [2] was greater than 24 h, the “FEVG.TM. 3 hours” value ([3]; 1200 nmol/kg SC, 3 hours, individual animals (Fig. S5B source data)) was 55.1558 and 58.4253 and 55.5031 and 58.4836 and 58.0536 and the “FEVG.TM. Baseline” value ([3]; 1200 nmol/kg SC, baseline, individual animals (Fig. S5B source data)) was 49.7762 and 61.2453 and 58.1457 and 44.7681 and 49.1413. The “LVEF 3 h after administration” value ([3]; 1200 nmol/kg s.c., mice, n = 5, 52.6 ± 3.0 before administration, p = 0.31) was 57.1 ± 0.7%, the plasma apelin levels ([4]; Sprague-Dawley rats, 30 min after s.c. 900 nmol/kg, basal 0.36 ± 0.05, n = 5) was 1.3 ± 0.22 pmol/mL and the “in vivo half-life in the blood circulation, i.v.” value ([4]; alert rats, 15 nmol/kg i.v., RIA) was 0.467 h. For the same molecule, the “in vivo half-life in the blood circulation, s.c.” value ([4]; alert rats, 900 nmol/kg s.c., RIA) was 2.6 h, the “Apelin (plasma apelin-immunoreactive level)” value ([4]; rats, 15 nmol/kg IV, time 5 min) was 3.535 and 7.0448 and the “Apelin (plasma apelin-immunoreactive level)” value ([4]; rats, 15 nmol/kg IV, time 7.5 min) was 6.127 and 4.75 and 3.783. For the same molecule, the “Apelin (plasma apelin-immunoreactive level)” value ([4]; rats, 15 nmol/kg IV, time 10 min) was 3.32 and 4.264, the “Apelin (plasma apelin-immunoreactive level)” value ([4]; rats, 15 nmol/kg IV, time 15 min) was 3.56 and 2.876 and 2.207 and the “Apelin (plasma apelin-immunoreactive level)” value ([4]; rats, 15 nmol/kg IV, time 60 min) was 1.212 and 1.2225. The “Apelin (plasma apelin-immunoreactive level)” value ([4]; rats, 900 nmol/kg SC, time 60 min) was 3.999 and 3.58, the “Apelin (plasma apelin-immunoreactive level)” value ([4]; rats, 900 nmol/kg SC, time 120 min) was 2.002 and 1.919 and 1.949 and the “Apelin (plasma apelin-immunoreactive level)” value ([4]; rats, 900 nmol/kg SC, time 270 min) was 1.1931 and 0.8899 and 1.066. The “Apelin (plasma apelin-immunoreactive level)” value ([4]; rats, 900 nmol/kg SC, time 360 min) was 1.029 and 0.9091 and 0.7789, the “Apelin (plasma apelin-immunoreactive level)” value ([4]; rats, 900 nmol/kg SC, time 1440 min) was 0.4742 and 0.5151 and 0.6469 and the “plasma apelin levels, times higher than basal levels” value ([4]; rats, 30 min after s.c. 900 nmol/kg) was 3.6 times. The “dDAVP-induced cAMP production” value [5] was “dose-dependently inhibits”, the “inhibition of dDAVP-induced cAMP production in OMCDs” value ([6]; co-application with dDAVP 0.1 nmol/l, increasing concentrations 50 nmol/l to 50 µmol/l) was 41% and the “cAMP production, value (Fig 2E)” value ([6]; peptide 5.10-5M, experiment 1) was 50. For the same molecule, the “cAMP production, value (Fig 2E)” value ([6]; peptide 5.10-5M, experiment 2) was 47, the “cAMP production, value (Fig 2E)” value ([6]; peptide 5.10-5M, experiment 3) was 56 and the “cAMP production, value (Fig 2E)” value ([6]; peptide 5.10-5M, experiment 4) was 50. For the same molecule, the “cAMP production, value (Fig 2E)” value ([6]; peptide 5.10-5M, experiment 5) was 48, the “cAMP production, value (Fig 2E)” value ([6]; peptide 5.10-5M, experiment 6) was 49 and the “cAMP production, value (Fig 2E)” value ([6]; peptide 5.10-7M, experiment 1) was 55. The “cAMP production, value (Fig 2E)” value ([6]; peptide 5.10-7M, experiment 2) was 58, the “cAMP production, value (Fig 2E)” value ([6]; peptide 5.10-7M, experiment 3) was 52 and the “cAMP production, value (Fig 2E)” value ([6]; peptide 5.10-7M, experiment 4) was 54. The “cAMP production, value (Fig 2E)” value ([6]; peptide 5.10-7M, experiment 5) was 56, the “cAMP production, value (Fig 2E)” value ([6]; peptide 5.10-7M, experiment 6) was 53 and the “cAMP production, value (Fig 2E)” value ([6]; peptide 5.10-8M, experiment 1) was 85. The “cAMP production, value (Fig 2E)” value ([6]; peptide 5.10-8M, experiment 2) was 87, the “cAMP production, value (Fig 2E)” value ([6]; peptide 5.10-8M, experiment 3) was 90 and the “cAMP production, value (Fig 2E)” value ([6]; peptide 5.10-8M, experiment 4) was 83. The “cAMP production, value (Fig 2E)” value ([6]; peptide 5.10-8M, experiment 5) was 88, the “cAMP production, value (Fig 2E)” value ([6]; peptide 5.10-8M, experiment 6) was 81 and the “bound fraction to plasma proteins” value [7] was 69 ± 7%.

From article PMC7804859, “A metabolically stable apelin-17 analog decreases AVP-induced antidiuresis and improves hyponatremia” (Nature Communications, 2021)
